Data published in ChEMBL document CHEMBL4382287, “Design, Synthesis, and Biological Evaluation of 6-Benzoxazole Benzimidazole Derivatives with Antihypertension Activities” (ACS Med Chem Lett, 2019).
Activity calls are given as the source filed them. No cut-off for these calls is given here.

What was measured:
Rattus norvegicus [1] = assay: Antihypertensive activity in rat spontaneous hypertensive model assessed as decrease in maximal mean blood pressure at 5 to 10 mg/kg, po qd measured up to 24 hrs; assay type: functional, organism-based
[2] = Displacement of [125I]-angiotensin-2 from AT1 receptor in Sprague-Dawley rat vascular smooth muscle cells after 150 mins by gamma counting method
[3] = Toxicity in rat spontaneous hypertensive model assessed as effect on heart rate at 5 to 10 mg/kg, po qd measured up to 24 hrs; assay type: organism-based; settings: in vivo
Rattus norvegicus [4] = assay: Antihypertensive activity in rat spontaneous hypertensive model assessed as decrease in maximal mean blood pressure at 10 mg/kg, po qd measured up to 24 hrs; assay type: functional

CCc1nc2c(C)cc(-c3nc4c(C)cccc4o3)cc2n1Cc1ccc2c(ccn2-c2ccccc2C(=O)O)c1
Activity (Rattus norvegicus [1]): Active | IC50 [2]: 12 nM | Ki [2]: 8.7 nM

CCCCc1nc2c(C)cc(-c3nc4c(C)cccc4o3)cc2n1Cc1ccc2c(ccn2-c2ccccc2C(=O)O)c1
Activity (Rattus norvegicus [1]): Active | IC50 [2]: 10.7 nM | Ki [2]: 7.7 nM

CCCc1nc2c(C)cc(-c3nc4cccc(C)c4o3)cc2n1Cc1ccc2c(ccn2-c2ccccc2C(=O)O)c1
Activity (Rattus norvegicus [1]): Active | IC50 [2]: 5.6 nM | Ki [2]: 4 nM

CCCc1nc2c(C)cc(-c3nc4c(C)cccc4o3)cc2n1Cc1cccc2c1ccn2-c1ccccc1C(=O)O
Activity (Rattus norvegicus [1]): Active | Activity [3]: Non-Toxic | IC50 [2]: 4 nM | Ki [2]: 2.9 nM | Activity (Rattus norvegicus [4]): 54.57 mmHg

CCCCc1nc2c(C)cc(-c3nc4cccc(C)c4o3)cc2n1Cc1ccc2c(ccn2-c2ccccc2C(=O)O)c1
Activity (Rattus norvegicus [1]): Active | IC50 [2]: 9.7 nM | Ki [2]: 7 nM

CCCc1nc2c(C)cc(-c3nc4cccc(C)c4o3)cc2n1Cc1cccc2c1ccn2-c1ccccc1C(=O)O
Activity (Rattus norvegicus [1]): Active | IC50 [2]: 5.3 nM | Ki [2]: 3.8 nM

CCCCc1nc2c(C)cc(-c3nc4cccc(C)c4o3)cc2n1Cc1cccc2c1ccn2-c1ccccc1C(=O)O
Activity (Rattus norvegicus [1]): Active | IC50 [2]: 10.5 nM | Ki [2]: 7.6 nM

CCCCc1nc(Cl)c(CO)n1Cc1ccc(-c2ccccc2-c2nnn[nH]2)cc1 [LOSARTAN]
IC50 [2]: 14.6 nM | Ki [2]: 10.5 nM | Activity (Rattus norvegicus [4]): 42.5 mmHg

CCc1nc2c(C)cc(-c3nc4c(C)cccc4o3)cc2n1Cc1cccc2c1ccn2-c1ccccc1C(=O)O
Activity (Rattus norvegicus [1]): Active | IC50 [2]: 10.3 nM | Ki [2]: 7.5 nM

CCc1nc2c(C)cc(-c3nc4cccc(C)c4o3)cc2n1Cc1cccc2c1ccn2-c1ccccc1C(=O)O
Activity (Rattus norvegicus [1]): Active | IC50 [2]: 12.1 nM | Ki [2]: 8.8 nM

CCCCc1nc2c(C)cc(-c3nc4c(C)cccc4o3)cc2n1Cc1cccc2c1ccn2-c1ccccc1C(=O)O
Activity (Rattus norvegicus [1]): Active | IC50 [2]: 9.9 nM | Ki [2]: 7.2 nM

CCCc1nc2c(C)cc(-c3nc4c(C)cccc4o3)cc2n1Cc1ccc2c(ccn2-c2ccccc2C(=O)O)c1
Activity (Rattus norvegicus [1]): Active | Activity [3]: Non-Toxic | IC50 [2]: 4.4 nM | Ki [2]: 3.2 nM | Activity (Rattus norvegicus [4]): 41.91 mmHg

CCc1nc2c(C)cc(-c3nc4cccc(C)c4o3)cc2n1Cc1ccc2c(ccn2-c2ccccc2C(=O)O)c1
Activity (Rattus norvegicus [1]): Active | IC50 [2]: 13.6 nM | Ki [2]: 9.8 nM
